System: A549 (lung cancer) cells
Assay: MTT screening of Erlotinib derivatives on A549 cells
Format: cell-based
Details: compound 10 μM, 24 hours, ratio of survival rate with derivative to survival rate with Erlotinib (lower = more active), unpurified in-situ reaction products
Procedure: Screening 840 Erlotinib derivatives by MTT method, operating steps: • (1) A549 (lung cancer) cells were adhered overnight: the logarithmic growth phase cells were digested and then counted, and were laid on 96 well plates overnight with 5000 cells per well. • (2) Adding drug: the compound concentration was diluted to 10 μM with complete culture solution, and the supernatant was discarded, and a volume of 100 μL per well was administrated and treated for 24 hours. • (3) Adding MTT: 20 μL MTT (5 mg/ml) was added to each well and cultured for 4 hours. • (4) Measuring the absorbance value: discarding the supernatant, 150 μL DMSO was added to each well, shaken for 10 minutes to make the crystals fully dissolved. The absorbance at 570 nm was measured by microplate reader.
The relative survival rate was calculated as the ratio of the survival rate of cells treated with Erlotinib derivatives to the survival rate of cells treated with positive compounds (Erlotinib), where lower relative survival rate means the activity of the compounds are better.

Row | SMILES | Relative survival rate
1 | COCCOc1cc2ncnc(Nc3cccc(-c4cn(CCc5cccc(OC)c5)nn4)c3)c2cc1OCCOC [Compound 20] | 0.993
2 | COCCOc1cc2ncnc(Nc3cccc(-c4cn([C@H]5CCc6nc(N)sc6C5)nn4)c3)c2cc1OCCOC [Compound 22] | 0.866
3 | COCCOc1cc2ncnc(Nc3cccc(-c4cn([C@@H](Cc5ccccc5)C(=O)OC(C)(C)C)nn4)c3)c2cc1OCCOC [Compound 23] | 0.874
4 | COCCOc1cc2ncnc(Nc3cccc(-c4cn(C(C)(Cc5ccccc5)C(=O)OC)nn4)c3)c2cc1OCCOC (centres unmarked) [Compound 24] | 0.557
5 | COCCOc1cc2ncnc(Nc3cccc(-c4cn(CC5=CCC(O)C=C5)nn4)c3)c2cc1OCCOC (centres unmarked) [Compound 25] | 0.885
6 | CCOC(=O)[C@H](Cc1ccc(O)cc1)n1cc(-c2cccc(Nc3ncnc4cc(OCCOC)c(OCCOC)cc34)c2)nn1 [Compound 26] | 0.942
7 | COCCOc1cc2ncnc(Nc3cccc(-c4cn(C(C)(C)c5ccccc5)nn4)c3)c2cc1OCCOC [Compound 27] | 0.862
8 | COCCOc1cc2ncnc(Nc3cccc(-c4cn(-c5cc(C)nn5-c5ccccc5)nn4)c3)c2cc1OCCOC [Compound 47] | 0.893
9 | CCOc1ccccc1Cn1cc(-c2cccc(Nc3ncnc4cc(OCCOC)c(OCCOC)cc34)c2)nn1 [Compound 48] | 0.971
10 | COCCOc1cc2ncnc(Nc3cccc(-c4cn(CCc5cccc([N+](=O)[O-])c5)nn4)c3)c2cc1OCCOC [Compound 49] | 0.913
11 | COCCOc1cc2ncnc(Nc3cccc(-c4cn(Cc5cccc(C(=O)OC)c5)nn4)c3)c2cc1OCCOC [Compound 50] | 0.951
12 | COCCOc1cc2ncnc(Nc3cccc(-c4cn([C@H](CO)C(=O)OCc5ccccc5)nn4)c3)c2cc1OCCOC [Compound 51] | 0.989
13 | COCCOc1cc2ncnc(Nc3cccc(-c4cn([C@H](C)c5nc6ccccc6[nH]5)nn4)c3)c2cc1OCCOC [Compound 52] | 0.993
14 | COCCOc1cc2ncnc(Nc3cccc(-c4cn(Cc5c[nH]cn5)nn4)c3)c2cc1OCCOC [Compound 53] | 0.928
15 | COCCOc1cc2ncnc(Nc3cccc(-c4cn(Cc5cc(C)on5)nn4)c3)c2cc1OCCOC [Compound 54] | 0.878
16 | COCCOc1cc2ncnc(Nc3cccc(-c4cn(Cc5ccccc5S(C)(=O)=O)nn4)c3)c2cc1OCCOC [Compound 55] | 0.814
17 | COCCOc1cc2ncnc(Nc3cccc(-c4cn(C(C)(C)c5cc(F)cc(F)c5)nn4)c3)c2cc1OCCOC [Compound 56] | 0.978
18 | COCCOc1cc2ncnc(Nc3cccc(-c4cn(Cc5ccsc5)nn4)c3)c2cc1OCCOC [Compound 57] | 0.957
19 | COCCOc1cc2ncnc(Nc3cccc(-c4cn(C[C@@H](O)c5ccccc5)nn4)c3)c2cc1OCCOC [Compound 84] | 0.988

Row | SMILES | Relative survival rate
20 | COCCOc1cc2ncnc(Nc3cccc(-c4cn(CCCOCc5ccccc5)nn4)c3)c2cc1OCCOC [Compound 85] | 0.867
21 | COCCOc1cc2ncnc(Nc3cccc(-c4cn(CCc5cccc(F)c5)nn4)c3)c2cc1OCCOC [Compound 86] | 0.861
22 | COCCOc1cc2ncnc(Nc3cccc(-c4cn(CCc5ccc(Cl)c(Cl)c5)nn4)c3)c2cc1OCCOC [Compound 87] | 0.850
23 | COCCOc1cc2ncnc(Nc3cccc(-c4cn([C@H](Cc5ccc(O)cc5)C(=O)OC)nn4)c3)c2cc1OCCOC [Compound 88] | 0.889
24 | COCCOc1cc2ncnc(Nc3cccc(-c4cn(C5CCCc6ccccc65)nn4)c3)c2cc1OCCOC (centres unmarked) [Compound 89] | 0.577
25 | COCCOc1cc2ncnc(Nc3cccc(-c4cn(CCc5c[nH]c6cc(Cl)ccc56)nn4)c3)c2cc1OCCOC [Compound 90] | 0.522
26 | COCCOc1cc2ncnc(Nc3cccc(-c4cn(CC(O)c5cccc(Cl)c5)nn4)c3)c2cc1OCCOC (centres unmarked) [Compound 92] | 0.854
27 | COCCOc1cc2ncnc(Nc3cccc(-c4cn(CCc5cccc(C(F)(F)F)c5)nn4)c3)c2cc1OCCOC [Compound 93] | 0.621
28 | COCCOc1cc2ncnc(Nc3cccc(-c4cn([C@@H](Cc5ccccc5)C(=O)OC)nn4)c3)c2cc1OCCOC [Compound 94] | 0.885
29 | COCCOc1cc2ncnc(Nc3cccc(-c4cn(CC(O)c5cccc(O)c5)nn4)c3)c2cc1OCCOC (centres unmarked) [Compound 95] | 0.971
30 | COCCOc1cc2ncnc(Nc3cccc(-c4cn([C@@H](C)C(=O)OCc5ccccc5)nn4)c3)c2cc1OCCOC [Compound 96] | 0.829
31 | COCCOc1cc2ncnc(Nc3cccc(-c4cn(CCc5ccc6ccccc6c5)nn4)c3)c2cc1OCCOC [Compound 97] | 0.654
32 | COCCOc1cc2ncnc(Nc3cccc(-c4cn(Cc5ccc(Cl)nc5)nn4)c3)c2cc1OCCOC [Compound 98] | 0.959
33 | COCCOc1cc2ncnc(Nc3cccc(-c4cn(CCc5ccccn5)nn4)c3)c2cc1OCCOC [Compound 99] | 0.888
34 | COCCOc1cc2ncnc(Nc3cccc(-c4cn(-c5ccccc5)nn4)c3)c2cc1OCCOC [Compound 266] | 1.130
35 | COCCOc1cc2ncnc(Nc3cccc(-c4cn(-c5ccc(O)c(C(=O)O)c5)nn4)c3)c2cc1OCCOC [Compound 267] | 1.129
36 | COCCOc1cc2ncnc(Nc3cccc(-c4cn(-c5ccc(C)cc5C(=O)O)nn4)c3)c2cc1OCCOC [Compound 268] | 1.311
37 | COCCOc1cc2ncnc(Nc3cccc(-c4cn(-c5ccc(Cc6ccccc6)cc5)nn4)c3)c2cc1OCCOC [Compound 269] | 1.289
38 | COCCOc1cc2ncnc(Nc3cccc(-c4cn(-c5ccc(CC(=O)OC)cc5)nn4)c3)c2cc1OCCOC [Compound 270] | 1.200

Source: patent US12681007B2, “High throughput method for constructing and screening compound library and reaction device” (ZH[…] (SHENZHEN) CO., LTD., priority 2019, dated 2026)
